Measured values reported in patent US11053204B2, “Pyrimidinyloxy benzene derivatives as herbicides” (FMC Corporation, priority 2015, dated 2021).

How the values were obtained:
Assay type in all cases: in vivo
[1] = tested on: Italian ryegrass (Lolium multiflorum); assay: Test A preemergence, visual injury rating
Procedure, shortened: (§1)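 Compounds in non-phytotoxic solvent with surfactant applied as soil spray preemergence, or postemergence to plants 2-10 cm at one- to two-leaf stage, in loam/sand. After approximately 10 days in greenhouse, injury rated visually versus untreated controls, 0 (no effect) to 100 (complete control).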

[2] = tested on: barnyardgrass (Echinochloa crus-galli); assay: Test A preemergence, visual injury rating
Procedure, shortened: as §1

[3] = tested on: giant foxtail (Setaria faberii); assay: Test A preemergence, visual injury rating
Procedure, shortened: as §1

[4] = tested on: kochia (Kochia scoparia); assay: Test A preemergence, visual injury rating
Procedure, shortened: as §1

[5] = tested on: pigweed (Amaranthus retroflexus); assay: Test A preemergence, visual injury rating
Procedure, shortened: as §1

[6] = tested on: ragweed (common ragweed, Ambrosia elatior); assay: Test A preemergence, visual injury rating
Procedure, shortened: as §1

[7] = tested on: Italian ryegrass (Lolium multiflorum); assay: Test A postemergence, visual injury rating; details: 0 to 100 scale, 0 is no effect, 100 is complete control, approximately 10 days
Procedure, shortened: as §1

[8] = tested on: barnyardgrass (Echinochloa crus-galli); assay: Test A postemergence, visual injury rating; details: 0 to 100 scale, 0 is no effect, 100 is complete control, approximately 10 days
Procedure, shortened: as §1

[9] = tested on: blackgrass (Alopecurus myosuroides); assay: Test A postemergence, visual injury rating; details: 0 to 100 scale, 0 is no effect, 100 is complete control, approximately 10 days
Procedure, shortened: as §1

[10] = tested on: corn (Zea mays); assay: Test A postemergence, visual injury rating; details: 0 to 100 scale, 0 is no effect, 100 is complete control, approximately 10 days
Procedure, shortened: as §1

[11] = tested on: galium (catchweed bedstraw, Galium aparine); assay: Test A postemergence, visual injury rating; details: 0 to 100 scale, 0 is no effect, 100 is complete control, approximately 10 days
Procedure, shortened: as §1

[12] = tested on: giant foxtail (Setaria faberii); assay: Test A postemergence, visual injury rating; details: 0 to 100 scale, 0 is no effect, 100 is complete control, approximately 10 days
Procedure, shortened: as §1

[13] = tested on: kochia (Kochia scoparia); assay: Test A postemergence, visual injury rating; details: 0 to 100 scale, 0 is no effect, 100 is complete control, approximately 10 days
Procedure, shortened: as §1

[14] = tested on: pigweed (Amaranthus retroflexus); assay: Test A postemergence, visual injury rating; details: 0 to 100 scale, 0 is no effect, 100 is complete control, approximately 10 days
Procedure, shortened: as §1

[15] = tested on: ragweed (common ragweed, Ambrosia elatior); assay: Test A postemergence, visual injury rating; details: 0 to 100 scale, 0 is no effect, 100 is complete control, approximately 10 days
Procedure, shortened: as §1

[16] = tested on: wheat (Triticum aestivum); assay: Test A postemergence, visual injury rating; details: 0 to 100 scale, 0 is no effect, 100 is complete control, approximately 10 days
Procedure, shortened: as §1

[17] = tested on: barnyardgrass (Echinochloa crus-galli); assay: Test B flooded paddy test, plant response rating; details: 250 g ai/ha; Flood; scale of 0 to 100 where 0 is no effect and 100 is complete control; 13 to 15 days
Procedure, shortened: (§2)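 Visual injury ratings against untreated controls, taken 13 to 15 days after compound was added to paddy water standing 3 cm above the soil.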

[18] = tested on: ducksalad (Heteranthera limosa); assay: Test B flooded paddy test, plant response rating; details: 250 g ai/ha; Flood; scale of 0 to 100 where 0 is no effect and 100 is complete control; 13 to 15 days
Procedure, shortened: as §2

[19] = tested on: rice (Oryza sativa); assay: Test B flooded paddy test, plant response rating; details: 250 g ai/ha; Flood; scale of 0 to 100 where 0 is no effect and 100 is complete control; 13 to 15 days
Procedure, shortened: as §2

[20] = tested on: sedge, umbrella (small-flower umbrella sedge, Cyperus difformis); assay: Test B flooded paddy test, plant response rating; details: 250 g ai/ha; Flood; scale of 0 to 100 where 0 is no effect and 100 is complete control; 13 to 15 days
Procedure, shortened: as §2

[21] = 31 g ai/ha, 0 to 100 scale, 0 no effect, 100 complete control
[22] = 125 g ai/ha, 0 to 100 scale (0 no effect, 100 complete control)

Row | SMILES | Plant response rating, Ryegrass, Italian [1, 21] | Plant response rating, Ryegrass, Italian [1, 22] | Plant response rating, Barnyardgrass [2, 21] | Plant response rating, Barnyardgrass [2, 22] | Plant response rating, Foxtail, Giant [3, 21] | Plant response rating, Foxtail, Giant [3, 22] | Plant response rating, Kochia [4, 21] | Plant response rating, Kochia [4, 22] | Plant response rating, Pigweed [5, 21] | Plant response rating, Pigweed [5, 22] | Plant response rating, Ragweed [6, 21] | Plant response rating, Ragweed [6, 22] | Ryegrass, Italian plant response rating ([7]; 31 g ai/ha) | Ryegrass, Italian plant response rating ([7]; 125 g ai/ha) | Barnyardgrass plant response rating ([8]; 31 g ai/ha) | Barnyardgrass plant response rating ([8]; 125 g ai/ha) | Blackgrass plant response rating ([9]; 31 g ai/ha) | Blackgrass plant response rating ([9]; 125 g ai/ha) | Corn plant response rating ([10]; 31 g ai/ha) | Corn plant response rating ([10]; 125 g ai/ha) | also measured
1 | CC(C)Oc1cccc(Oc2ncc(Cl)cn2)c1C(=O)OCCC(F)(F)F [Compound 115] | 0 | 0 | 0 | 0 | 0 | 0 | 70 | 0 | 0 | 0 | 20 | 0 | 0 | 0 | 0 | 0 | 0 | 20 | 0 | 10 | Galium plant response rating ([11]; 31 g ai/ha): 20; Galium plant response rating ([11]; 125 g ai/ha): 20; Foxtail, Giant plant response rating ([12]; 31 g ai/ha): 0; Foxtail, Giant plant response rating ([12]; 125 g ai/ha): 0; Kochia plant response rating ([13]; 31 g ai/ha): 0; Kochia plant response rating ([13]; 125 g ai/ha): 0; Pigweed plant response rating ([14]; 31 g ai/ha): 10; Pigweed plant response rating ([14]; 125 g ai/ha): 40; Ragweed plant response rating ([15]; 31 g ai/ha): 0; Ragweed plant response rating ([15]; 125 g ai/ha): 0; Wheat plant response rating ([16]; 31 g ai/ha): 0; Wheat plant response rating ([16]; 125 g ai/ha): 0; Plant response rating, Barnyardgrass [17]: 0; Plant response rating, Ducksalad [18]: 0; Plant response rating, Rice [19]: 0; Plant response rating, Sedge, Umbrella [20]: 0
2 | CCOc1cccc(Oc2ncc(Cl)cn2)c1C(=O)OCCC(F)(F)F [Compound 116] | 0 | 0 | 0 | 0 | 0 | 30 | 0 | 0 | 50 | 70 | 30 | 0 | 0 | 0 | 0 | 10 | 0 | 0 | 0 | 10 | Galium plant response rating ([11]; 31 g ai/ha): 30; Galium plant response rating ([11]; 125 g ai/ha): 60; Foxtail, Giant plant response rating ([12]; 31 g ai/ha): 0; Foxtail, Giant plant response rating ([12]; 125 g ai/ha): 20; Kochia plant response rating ([13]; 31 g ai/ha): 0; Kochia plant response rating ([13]; 125 g ai/ha): 10; Pigweed plant response rating ([14]; 31 g ai/ha): 40; Pigweed plant response rating ([14]; 125 g ai/ha): 50; Ragweed plant response rating ([15]; 31 g ai/ha): 0; Ragweed plant response rating ([15]; 125 g ai/ha): 0; Wheat plant response rating ([16]; 31 g ai/ha): 0; Wheat plant response rating ([16]; 125 g ai/ha): 0; Plant response rating, Barnyardgrass [17]: 30; Plant response rating, Ducksalad [18]: 75; Plant response rating, Rice [19]: 70; Plant response rating, Sedge, Umbrella [20]: 90
3 | O=C(OCCC(F)(F)F)c1c(OCC(F)(F)F)cccc1Oc1ncc(Cl)cn1 [Compound 117] | 0 | 0 | 0 | 0 | 0 | 20 | 0 | 0 | 0 | 30 | 0 | 0 | 0 | 0 | 0 | 10 | 0 | 10 | 10 | 10 | Galium plant response rating ([11]; 31 g ai/ha): 60; Galium plant response rating ([11]; 125 g ai/ha): 100; Foxtail, Giant plant response rating ([12]; 31 g ai/ha): 0; Foxtail, Giant plant response rating ([12]; 125 g ai/ha): 10; Kochia plant response rating ([13]; 31 g ai/ha): 20; Kochia plant response rating ([13]; 125 g ai/ha): 50; Pigweed plant response rating ([14]; 31 g ai/ha): 30; Pigweed plant response rating ([14]; 125 g ai/ha): 70; Ragweed plant response rating ([15]; 31 g ai/ha): 0; Ragweed plant response rating ([15]; 125 g ai/ha): 20; Wheat plant response rating ([16]; 31 g ai/ha): 0; Wheat plant response rating ([16]; 125 g ai/ha): 0; Plant response rating, Barnyardgrass [17]: 0; Plant response rating, Ducksalad [18]: 20; Plant response rating, Rice [19]: 0; Plant response rating, Sedge, Umbrella [20]: 60
4 | CCCC(C#N)c1c(Br)cccc1Oc1ncc(Cl)cn1 (stereo not drawn) [Compound 118] | 0 | 0 | 0 | 0 | 0 | 20 | 0 | 0 | 20 | 50 | 100 | 50 | 0 | 0 | 0 | 10 | 0 | 0 | 0 | 10 | Galium plant response rating ([11]; 31 g ai/ha): 10; Galium plant response rating ([11]; 125 g ai/ha): 30; Foxtail, Giant plant response rating ([12]; 31 g ai/ha): 0; Foxtail, Giant plant response rating ([12]; 125 g ai/ha): 10; Kochia plant response rating ([13]; 31 g ai/ha): 30; Kochia plant response rating ([13]; 125 g ai/ha): 60; Pigweed plant response rating ([14]; 31 g ai/ha): 40; Pigweed plant response rating ([14]; 125 g ai/ha): 60; Ragweed plant response rating ([15]; 31 g ai/ha): 0; Ragweed plant response rating ([15]; 125 g ai/ha): 10; Wheat plant response rating ([16]; 31 g ai/ha): 0; Wheat plant response rating ([16]; 125 g ai/ha): 0; Plant response rating, Barnyardgrass [17]: 0; Plant response rating, Ducksalad [18]: 0; Plant response rating, Rice [19]: 0; Plant response rating, Sedge, Umbrella [20]: 50
